Measurements published in patent US11337983B2, “Dactinomycin compositions and methods for the treatment of acute myeloid leukemia” (priority 2015, dated 2022).
Entries after “also recorded” stand apart in the source; their conditions may differ. *1 amine or outer side, *2 acyl side, *3 side chain or, on linkers, in order; H or OH if unused. Where a SMILES comes first, the peptide text is derived from it. Bridges are numbered along the chain shown (N, C = ends). Roman numbers before positions name the chains, in order. [ ]: non-standard residue; d: D form. Actinocin(9to1) = Cc1c2oc3c(C)ccc(C(=O)[*:1])c3nc-2c(C(=O)[*:2])c(N)c1=O; NMeV = CN[CH](C(=O)O)C(C)C; Sar = CNCC(=O)O

Tests used:
Format in all cases: in vivo, human
[1] = test system: NPM1-mutated AML without FLT3 internal tandem duplication mutations; experiment: Dactinomycin single-agent treatment of a patient with NPM1-mutated AML (response)
Description: (§1) A patient with NPM1-mutated AML without FLT3 internal tandem duplication mutations was treated with dactinomycin. Because dactinomycin lacks cardiotoxicity, a patient was selected for whom intensive chemotherapy was not appropriate owing to a low left ventricular ejection fraction (35%). […] Therefore, with the patient's consent, dactinomycin was administered as an off-label single agent (approved by the institutional review board at Perugia Hospital), at a dose of 12.5 μg per kilogram of body weight per day for 5 consecutive days, as recommended for low-risk gestational trophoblastic tumors. […] Four more cycles were administered for a total of six cycles, at intervals of 3 to 4 weeks.
The progressive decrease in NPM1 mutant transcripts (until the achievement of negativity for minimal residual disease) is reminiscent of dactinomycin-induced normalization of serum levels of human chorionic gonadotropin in patients with gestational trophoblastic tumors.

[2] = test system: refractory or relapsed NPM1-mutated AML; experiment: Dactinomycin treatment of six additional patients with refractory or relapsed NPM1-mutated AML; conditions: 15.0 μg per kilogram per day for 5 consecutive days, cycles
Description: Six additional patients with refractory or relapsed NPM1-mutated AML were treated with cycles of dactinomycin at a dose of 15.0 μg per kilogram per day for 5 consecutive days.

[3] = Adverse events and hematologic toxic effects during dactinomycin treatment of the patient
Description: as §1
The number of days with a hemoglobin level of less than 8 g per deciliter, severe thrombocytopenia (a platelet count of <20,000 per cubic millimeter), and severe neutropenia (a neutrophil count of <500 per cubic millimeter) are reported for cycles 1 through 6. A total of 8 units of red cells and 4 units of platelets were transfused during cycle 1, and 4 units of red cells and 1 unit of platelets were transfused during cycle 2.

[4] = after two cycles of dactinomycin

Nc1ncn([C@@H]2O[C@H](CO)[C@@H](O)[C@H]2O)c(=O)n1 [azacitidine]
Course of leukemia after prior therapy ([1]; initial single cycle of azacitidine, before dactinomycin): Leukemia had progressed

Cc1c2oc3c(C)ccc(C(=O)NC4C(=O)NC(C(C)C)C(=O)N5CCCC5C(=O)N(C)CC(=O)N(C)C(C(C)C)C(=O)OC4C)c3nc-2c(C(=O)NC2C(=O)NC(C(C)C)C(=O)N3CCCC3C(=O)N(C)CC(=O)N(C)C(C(C)C)C(=O)OC2C)c(N)c1=O (stereo not shown) [dactinomycin, 2-amino-N,N′-bis(hexadecahydro-2,5,9-trimethyl-6,13-bis(1-methylethyl)-1,4,7,11,14-pentaoxo-1H-pyrrolo(2,1-I)(1,4,7,10,13)oxatetra-azacyclohexadecin-10-yl)-4,6-dimethyl-3-oxo-3H-phenoxazine-1,9-dicarboxamide] (I: TVP[Sar][NMeV] / II: TVP[Sar][NMeV]; ester I:1-I:C, II:1-II:C; linker I:N-II:N via Actinocin(9to1); configuration not given here)
Morphologic and immunohistochemical (hematologic) complete remission ([1]; 12.5 μg per kilogram per day for 5 consecutive days per cycle, patient): hematologic complete remission; also recorded: complete remission was achieved after two cycles of therapy
Immunostaining with anti-NPM1 monoclonal antibody of bone marrow cells [1, 4]: nucleus-restricted positivity for NPM1
Leukemic blasts in bone marrow aspirate (MGG staining) [1, 4]: less than 5%
Molecular complete remission / negativity for minimal residual disease (quantitative RT-PCR for mutant copies of NPM1) ([1]; bone marrow samples, 12.5 μg/kg/day x 5 days per cycle): Negativity for minimal residual disease was achieved after the fourth cycle; also recorded: molecular complete remission after the fourth cycle
Mutant copies of NPM1 in bone marrow samples (RT-PCR, copies per 100 copies of Abl) ([1]; during dactinomycin treatment): progressive reduction in copies
Duration of morphologic and molecular complete remission ([1]; six cycles at intervals of 3 to 4 weeks): 14 months
Hematologic complete remission (patients of six treated) [2]: achieved in two patients
Need for red-cell or platelet transfusions ([3]; after cycle 2 (cycles 3 through 6)): no need for blood transfusions; also recorded: No red-cell or platelet transfusions were necessary
Number of days with Hb <8 g/dl ([3]; cycle 1): 3 days
Number of days with PLT <20000/mm^3 ([3]; cycle 1): 13 days
Number of days with PMN <500/mm^3 ([3]; cycle 1): 26 days
Platelets transfused ([3]; cycle 1): 4 units
Red cells transfused ([3]; cycle 1): 8 units
Number of days with Hb <8 g/dl ([3]; cycle 2): 3 days
Number of days with PLT <20000/mm^3 ([3]; cycle 2): 2 days
Number of days with PMN <500/mm^3 ([3]; cycle 2): 6 days
Platelets transfused ([3]; cycle 2): 1 unit
Red cells transfused ([3]; cycle 2): 4 units
Number of days with Hb <8 g/dl ([3]; cycle 3): 0 days
Number of days with PLT <20000/mm^3 ([3]; cycle 3): 0 days
Number of days with PMN <500/mm^3 ([3]; cycle 3): 4 days
Number of days with Hb <8 g/dl ([3]; cycle 4): 0 days
Number of days with PLT <20000/mm^3 ([3]; cycle 4): 0 days
Number of days with PMN <500/mm^3 ([3]; cycle 4): 4 days
Number of days with Hb <8 g/dl ([3]; cycle 5): 0 days
Number of days with PLT <20000/mm^3 ([3]; cycle 5): 0 days
Number of days with PMN <500/mm^3 ([3]; cycle 5): 4 days
Number of days with Hb <8 g/dl ([3]; cycle 6): 0 days
Number of days with PLT <20000/mm^3 ([3]; cycle 6): 0 days
Number of days with PMN <500/mm^3 ([3]; cycle 6): 3 days
Skin adverse event ([3]; during cycle 2): superficial skin erosions
Febrile neutropenia and thrombocytopenia (adverse event grade) ([3]; during cycles 1 and 2): 4 grade
Oral mucositis (adverse event grade) ([3]; during cycles 1 through 3): 2 grade
